In patent publication US20150141386A1, “USE OF VITAMIN K TO DECREASE ALLOGRAFT FAILURE AND PATIENT MORTALITY AFTER ORGAN TRANSPLANTATION” (VITAK B.V., priority 2012, published 2015):

Assays:
[1] = tested on: osteocalcin (OC); test: Circulating uncarboxylated osteocalcin (ucOC) / OC carboxylation in vitamin K intervention studies; assay type: in vivo, human
Method: (§1) Blood was drawn after an 8-12 h overnight fasting period to prepare serum and citrated plasma, which were subsampled and frozen at −80° C. until use. Renal allograft function was assessed as the 24 h urinary creatinine clearance (CrCl), i.e. the 24 h urinary creatinine excretion divided by the serum creatinine concentration. Vitamin K status was assessed from plasma dp-ucMGP concentrations as described elsewhere {Cranenburg EC et al. Thromb. Haemostas. 104 (2010) 811-822} and from ucOC using a commercial dual antibody ELISA test kit (Takara Shuzo Co. Ltd., Otsu, Shiga, Japan). An in-house control serum pool was run on all ELISA plates. The primary end-points of this study were death-censored graft failure and change in kidney function. Death-censored graft failure was defined as return to dialysis therapy or re-transplant. Change in kidney function was defined as estimated GFR (eGFR) at baseline subtracted by eGFR at the last follow-up visit, divided by time from baseline to follow-up and expressed in millilitres per minute per 1.73 m^2 per year. […] Calculating a slope instead of a change in eGFR therefore will underestimate a patient's true kidney function decrease. For patients who died with a functioning graft (n=78), eGFR at follow-up was defined as kidney function at the last visit to the outpatient clinic before death, and for patients with graft failure (n=42), eGFR at follow-up was defined as the eGFR at the last visit to the outpatient clinic before starting dialysis therapy or re-transplant. There was no loss to follow-up.
Recommended doses of vitamin K for treating transplant patients. […] On top of this, chronic kidney disease (CKD) patients are known to have much more pronounced vitamin K insufficiency than healthy subjects {Schlieper G et al. J. Am. Soc. Nephrol., 22 (2011) 387-395}. Therefore, the estimated range for optimal effect is dependent on the disease state and may be higher than estimated from literature data. […] This was shown in archived samples from a vitamin K1-intervention study initially described in 2003 {Braam L A et al. Am. J. Sports Med. 31 (2003) 889-895}. […] This was shown in archived samples from a vitamin K1-intervention study initially described in 2003 {Braam L A et al. Calcif. Tissue Int. 73 (2003) 21-26}. During the first 6 months of the study, circulating ucOC in the vitamin K-treated group decreased from 4.2 ng/mL to 0.8 ng/mL, whereas in the control samples a non-significant increase was observed from 4.4 ng/mL to 4.7 ng/mL. […] 109 (2007) 3279-3283}. […]

[2] = tested on: Matrix Gla-Protein (MGP); test: Circulating desphospho-uncarboxylated MGP (dp-ucMGP) / MGP carboxylation in vitamin K intervention studies; assay type: in vivo, human; details: for circulating dp-ucMGP at start: baseline
Method: as §1
(§2) Recommended doses of vitamin K for treating transplant patients. […] On top of this, chronic kidney disease (CKD) patients are known to have much more pronounced vitamin K insufficiency than healthy subjects {Schlieper G et al. J. Am. Soc. Nephrol., 22 (2011) 387-395}. Therefore, the estimated range for optimal effect is dependent on the disease state and may be higher than estimated from literature data. […] This was shown in archived samples from a vitamin K1-intervention study initially described in 2003 {Braam L A et al. Am. J. Sports Med. 31 (2003) 889-895}. […] This was shown in archived samples from a vitamin K1-intervention study initially described in 2003 {Braam L A et al. Calcif. Tissue Int. 73 (2003) 21-26}. During the first 6 months of the study, circulating ucOC in the vitamin K-treated group decreased from 4.2 ng/mL to 0.8 ng/mL, whereas in the control samples a non-significant increase was observed from 4.4 ng/mL to 4.7 ng/mL. […] 109 (2007) 3279-3283}.
(§3) the optimal dose for Gla-protein carboxylation in subjects free from CKD lies between 5 and 2,000 μg/day, preferably between 50 and 1,000 μg/day, more preferably between 100 and 1,000 μg/day and most preferably between 200 and 500 μg/day for subjects with baseline levels in the normal range. […] The decreases of circulating dp-ucMGP and ucOC are shown in FIG. 10. • Lower doses were tested in a number of small studies with a significant effect at 200 μg/day and a half-maximum effect at 500 μg/day.

[3] = tested on: circulating OC and MGP; test: Gla-protein carboxylation (circulating OC and MGP) after vitamin K supplementation; assay type: in vivo, human
Text: as §2, §3
the optimal dose for Gla-protein carboxylation in subjects free from kidney disease lies between 5 and 3,000 μg/day, preferably between 50 and 2,000 μg/day, more preferably between 100 and 1,000 μg/day and most preferably between 200 and 500 μg/day for subjects with baseline levels in the normal range. […] Treatment should be guided by the circulating levels of dp-ucMGP, ucOC, or uncarboxylated species of any other suitable Gla-protein. • MK-n: The long-chain menaquinones are selected from the group menaquinone-7, menaquinone-8, menaquinone-9, and menaquinone-10. The long half-life times of the long-chain menaquinones make that the optimal dose for Gla-protein carboxylation is lower than for vitamin K1 {Schurgers L J et al. Biochim. Biophys. Acta 1570 (2002) 27-32}. […] A clear dose-dependent increase of MGP carboxylation was found, for instance, between 45 μg/day and 360 μg/day {Westenfeld R et al. Am. J. Kidney Dis. 59 (2012) 186-195}.

[4] = tested on: osteocalcin (OC); details: cited from earlier work
[5] = in vivo; cited from earlier work

CC1=C(C/C=C(\C)CCC[C@H](C)CCC[C@H](C)CCCC(C)C)C(=O)c2ccccc2C1=O [K1, phylloquinone]
circulating ucOC at start ([1]; K1 1,000 μg/day group, baseline): 4.2 ng/mL | circulating ucOC after treatment ([1]; K1 1,000 μg/day, first 6 months of the study): 0.8 ng/mL | circulating ucOC level at start ([1]; K1 10,000 μg/day group, baseline of 2-year study): 4.6 ng/mL | circulating ucOC level after treatment ([1]; K1 10,000 μg/day, first 6 months of 2-year study, background = buffer values): not different from background | circulating dp-ucMGP after treatment ([2]; K1 1,000 μg/day (FIG. 8)): 112 pM | circulating dp-ucMGP at start ([2]; K1 1,000 μg/day group): 389 pM | circulating dp-ucMGP after treatment ([2]; K1 10,000 μg/day (FIG. 7)): 23 pM | circulating dp-ucMGP at start ([2]; K1 10,000 μg/day group): 182 pM | OC and MGP carboxylation ([3]; K1 1,000 μg/day, healthy volunteers): substantial increase | carboxylation of circulating OC and MGP ([3]; K1 10,000 μg/day, archived samples of vitamin K1-intervention study): more than 95% | effect on the carboxylation degree of circulating OC ([4]; K1 140 μg/day): less pronounced but statistically significant effect | circulating half-life time [5]: around 1.5 h

CC(C)=CCC/C(C)=C/CC/C(C)=C/CC/C(C)=C/CC1=C(C)C(=O)c2ccccc2C1=O [MK-4, menaquinone-4]
circulating dp-ucMGP change ([2]; MK-4 45,000 μg/day (FIG. 9)): decrease | dose with half-maximum effect on Gla-protein carboxylation ([3]; lower doses, small studies): 500 µg/day | dose with significant effect on Gla-protein carboxylation ([3]; lower doses, small studies): 200 µg/day | carboxylation of circulating OC ([4]; MK-4 45,000 μg/day taken for 6 months): complete carboxylation | circulating half-life time [5]: 1 h
